Results taken from patent US9238631B2, “Radiolabeled amino acids for diagnostic imaging” (PIRAMAL IMAGING SA, priority 2011, dated 2016).

How the values were obtained:
NCI-H460 tumor [1] = assay: In vivo biodistribution in NCI-H460 tumor bearing mice; settings: for T/Blood / T/Muscle: 1 h post injection
Experimental: (§1) To test the pharmacokinetic properties of compounds from the present invention, all F18-labeled compounds were examined by biodistribution studies in NCI-H460 tumor bearing mice. Female NMRI (nu/nu) mice were inoculated with 5×10^6 NCI-H460 tumor cells 8 to 10 days before the biodistribution studies. 185 kBq of activity of the fluorinated compound was injected and at least n=3 mice were used for every time point. After injection of the F18-labeled compound, mice were sacrificed at defined time-points. All organs were removed and radioactivity was determined using a γ-counter.
To compare the tumor uptake and retention of radioactivity of different ^18F-labeled derivatives from the present invention, biodistribution studies were performed in NCI-H460 tumor bearing NMRI (nu/nu) mice as described above.
To compare the kidney clearance of several ^18F-labeled derivatives from the present invention, biodistribution studies were performed in NCI-H460 tumor bearing female NMRI (nu/nu) mice as described above. […] After 2 h p.i., less than 1% ID/g can be found in the kidneys.
For comparison of pancreas uptake and clearance of several ^18F-labeled derivatives from the present invention, biodistribution studies were performed in NCI-H460 tumor bearing NMRI (nu/nu) mice as described above. […] After 2 h p.i., less than 2% ID/g can be found in the pancreas.
as §1, with “and” for “for every time point. After injection of the F18-labeled compound, mice were”, “time-points raning from 15 min pi up to 2 h p.i.” for “time-points.”, “γ-counter. […] High tumor uptake values of >3% ID/g were obtained with various compounds from the present invention.” for “γ-counter.”

NCI-H460 tumor [2] = assay: PET imaging in NCI-H460 tumor bearing nude-rats; assay type: in vivo; settings: PET ROI analysis, 1 h p.i.
Experimental: c) Beside PET-imaging studies in mice, also the imaging properties of [^18F]-12 in rats were examined. NCI-H460 tumor cells were inoculated into the right flank of nude-rats (RH-Foxn1 nu/nu) 8 to 10 days before the PET study. PET images were acquired at 60 min after injection of approximately 10 MBq for 10 minutes. The H460 tumor was nicely visible (0.9% ID/g as determined by ROI analysis). Beside some minor uptake into the liver and kidneys due to the excretion of the compound, no uptake into other non-target tissues was observed.
To test the imaging properties, compounds from the present invention were evaluated in PET imaging studies using tumor bearing rats. NCI-H460 tumor cells were inoculated into the right flank of nude-rats (RH-Foxn1 nu/nu) 8 to 10 days before the PET study. PET images were acquired at 60 min after injection of approximately 10 MBq for 10 minutes. After the imaging study, region-of-interest (ROI) analysis was performed and activity in tumor, liver and kidney was determined. […] High tumor uptake values of >1% […] in this rat model were obtained with various compounds from the present invention. A favorable clearance profile of all compounds enables excellent tumor detection in PET imaging studies in tumor bearing rats.

[3] = tested on: NCI-H460 (human NSCLC) cells; assay: In vitro cell-uptake study: blocking of radiolabeled glutamate derivative uptake; assay type: cell-based; settings: compound 1 mM, 30 minutes, mean ± SD, without compound = 100%
Experimental: The ability of compounds from the present invention to compete with radiolabeled glutamate derivatives for uptake into tumor cells was examined. NCI-H460 (human NSCLC) cells, grown adherently in 48 well plates were used for these competition-experiments. Approximately 100.000 cells were co-incubated in PBS-buffer containing 0.1% BSA with a radiolabeled Glutamic acid derivative and several compounds, which were used at a concentration of 1 mM for 30 minutes. After this time, the cell bound radioactivity was determined.

SMILES	Kidney (% ID/g at 1 h p.i.) (NCI-H460 tumor [1]) [% ID/g]	Liver (% ID/g at 1 h p.i.) (NCI-H460 tumor [1]) [% ID/g]	Pancreas (% ID/g at 1 h p.i.) (NCI-H460 tumor [1]) [% ID/g]	Tumor (% ID/g at 1 h p.i.) (NCI-H460 tumor [1]) [% ID/g]	Urine (% ID at 1 h p.i.) (NCI-H460 tumor [1]) [% ID]	T/Blood (NCI-H460 tumor [1])	T/Muscle (NCI-H460 tumor [1])	Kidney (% ID/g at 1 h p.i.) (NCI-H460 tumor [2]) [% ID/g]	Liver (% ID/g at 1 h p.i.) (NCI-H460 tumor [2]) [% ID/g]	Tumor (Max % ID/g at 1 h p.i.) (NCI-H460 tumor [2]) [% ID/g]	Tumor (Mean % ID/g at 1 h p.i.) (NCI-H460 tumor [2]) [% ID/g]	Uptake of radiolabeled glutamate-derivative (% of control) [3]
N[C@@H](CCC(Cc1ccc(OC[18F])cc1)C(=O)O)C(=O)O (single isomer, unassigned) [[^18F]-41 C5-1]	3.5 ± 0.7	0.3 ± 0.1	2.2 ± 0.3	6.4 ± 1.4	85.0 ± 7.7	23.4	94.2	0.5	0.4	3.2	1.2	–
N[C@@H](CCC(Cc1ccc(OC[18F])cc1)C(=O)O)C(=O)O (single isomer, unassigned) [[^18F]-41 C5-2]	2.4 ± 0.8	0.3 ± 0.1	1.1 ± 0.2	8.7 ± 1.9	83.5 ± 5.1	36.0	107.3	0.2	0.2	4.4	2.0	–
N[C@@H](C[C@H](Cc1ccc(OCCF)cc1)C(=O)O)C(=O)O [Example 1, (4S)-4-[4-(2-Fluoroethoxy)benzyl]-L-glutamic acid]	–	–	–	–	–	–	–	–	–	–	–	5.0 ± 0.2 % of control
N[C@@H](CCC(Cc1ccc(OCC[18F])cc1)C(=O)O)C(=O)O (stereo partly drawn) [[^18F]-12 C5-1] [(2S)-2-amino-5-[4-([^18F]fluoroethoxy)benzyl]hexanedioic acid]	–	–	–	–	–	–	–	0.8	1.2	3.4	1.3	–
N[C@@H](CCC(Cc1ccc(OCC[18F])cc1)C(=O)O)C(=O)O (stereo partly drawn) [[^18F]-12 C5-2] [(2S)-2-amino-5-[4-(fluoroethoxy)benzyl]hexanedioic acid]	–	–	–	–	–	–	–	0.4	0.5	3.7	1.6	–
N[C@H](CCC(Cc1ccc(OCC[18F])cc1)C(=O)O)C(=O)O (stereo partly drawn) [[^18F]-16, (2R)-2-Amino-5-[4-(2-[^18F]fluoroethoxy)benzyl]hexanedioic acid]	3.4 ± 0.3	3.3 ± 0.1	1.4 ± 0.1	3.6 ± 0.6	74.5 ± 6.8	14.1	54.2	1.7	2.3	2.1	0.8	–
N[C@@H](CC(Cc1ccc(OCC[18F])cn1)C(=O)O)C(=O)O (some centres unmarked) [[^18F]-17]	–	–	–	–	–	–	–	2.4	0.9	2.6	1.2	–
N[C@@H](CCC(Cc1ccc(OCC[18F])cn1)C(=O)O)C(=O)O (stereo partly drawn) [[^18F]-32, (2S)-2-Amino-5-{[5-(2-[^18F]fluoroethoxy)pyridin-2-yl]methyl}hexanedioic acid]	3.9 ± 1.0	2.3 ± 0.2	0.7 ± 0.1	2.3 ± 0.9	81.0 ± 7.5	17.9	23.5	–	–	–	–	–
